According to patent US6737383B1, “Herbicidal oxadiazolidines” (priority 1999, dated 2004):

Tests used:
[1] = system: barnyardgrass; test: Test C postemergence barnyardgrass; format: in vivo, Echinochloa crus-galli; details: 0 to 100 scale, 0 no effect, 100 complete control
Outline: (§1)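 Visual ratings on a 0 to 100 scale, where 0 means no effect and 100 complete control, were made versus untreated controls roughly 14 to 21 days after postemergence treatment. Test compounds were formulated in a non-phytotoxic solvent mixture containing a surfactant.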

[2] = system: redroot pigweed; test: Test C postemergence redroot pigweed; format: in vivo, Amaranthus retroflexus; details: 0 to 100 scale, 0 no effect, 100 complete control
Method: (§2) Compounds evaluated in this test were formulated in a non-phytotoxic solvent mixture which included a surfactant and applied to plants that were grown for various periods of time before treatment (postemergence application). A mixture of sandy loam soil and greenhouse potting mix in a 60:40 ratio was used for the postemergence test.
(§3) Plantings of these crops and weed species were adjusted to produce plants of appropriate size for the postemergence test. All plant species were grown using normal greenhouse practices. Crop and weed species include arrowleaf sida (Sida rhombifolia), barnyardgrass (Echinochloa crus-galli), cocklebur (Xanthium strumarium), common ragweed (Ambrosia elatior), corn (Zea mays), cotton (Gossypium hirsutum), eastern black nightshade (Solanum ptycanthum), fall panicum (Panicum dichotomiflorum), field bindweed (Convolvulus arvensis), giant foxtail (Setaria faberii), hairy beggarticks (Bidens pilosa), ivyleaf morningglory (Ipomoea hederacea), johnsongrass (Sorghum halepense), ladysthumb smartweed (Polygonum persicaria), lambsquarters (Chenopodium album), large crabgrass (Digitaria sanguinalis), purple nutsedge (Cyperus rotundus), redroot pigweed (Amaranthus retroflexus), soybean (Glycine max), surinam grass (Brachiaria decumbens), velvetleaf (Abutilon theophrasti) and wild poinsettia (Euphorbia heterophylla).
(§4) Treated plants and untreated controls were maintained in a greenhouse for approximately 14, to 21 days, after which all treated plants were compared to untreated controls and visually evaluated. Plant response ratings, summarized in Table C, were based upon a 0 to 100 scale where 0 was no effect and 100 was complete control. A dash response (−) means no test result.

[3] = system: velvetleaf; test: Test C postemergence velvetleaf; format: in vivo, Abutilon theophrasti; details: 0 to 100 scale, 0 no effect, 100 complete control
Outline: as §1

[4] = system: wild poinsettia; test: Test C postemergence wild poinsettia; format: in vivo, Euphorbia heterophylla; details: 0 to 100 scale, 0 no effect, 100 complete control
Method: as §2, §3, §4

[5] = system: chickweed; test: Test E chickweed; format: in vivo, Stellaria media; details: Postemergence; for Plant response rating, Chickweed: 0 to 100 scale; for Chickweed plant response rating: Rate 250 g/ha, 0 to 100 scale where 0 is no effect and 100 is complete control
Method: (§5) Compounds evaluated in this test were formulated in a non-phytotoxic solvent mixture which included a surfactant and applied to plants that were in the 1- to 4-leaf stage (postemergence application). A mixture of sandy loam soil and greenhouse potting mix in a 60:40 ratio was used for the postemergence test.
(§6) Plantings of these crops and weed species were adjusted to produce plants of appropriate size for the postemergence test. All plant species were grown using normal greenhouse practices. Crop and weed species include annual bluegrass (Poa annua), blackgrass (Alopecurus myosuroides), black nightshade (Solanum nigra), chickweed (Stellaria media), common poppy (Papaver rhoeas), deadnettle (Lamium amplexicaule), downy brome (Bromus tectorum), field violet (Viola arvensis), galium (Galium aparine), green foxtail (Setaria viridis), Italian ryegrass (Lolium multiflorum), jointed goatgrass (Aegilops cylindrica), kochia (Kochia scoparia), lambsquarters (Chenopodium album), littleseed canarygrass (Phalaris minor), rape (Brassica napus), redroot pigweed (Amaranthus retroflexus), Russian thistle (Salsola kali), scentless chamomile (Matricaria inodora), spring barley (Hordeum vulgare), sugar beet (Beta vulgaris), sunflower (Helianthus annuus), ivyleaf speedwell (Veronica hederaefolia), spring wheat (Triticum aestivum), winter wheat (Triticum aestivum), wild buckwheat (Polygonum convolvulus), wild mustard (Sinapis arvensis), wild oat (Avena fatua), windgrass (Apera spica-venti) and winter barley (Hordeum vulgare).
(§7) Treated plants and untreated controls were maintained in a greenhouse for approximately 21 to 28 days, after which all treated plants were compared to untreated controls and visually evaluated. […] A dash response (-) means no test result.

[6] = system: deadnettle; test: Test E deadnettle; format: in vivo, Lamium amplexicaule; details: Postemergence; for Plant response rating, Deadnettle: 0 to 100 scale; for Deadnettle plant response rating: Rate 250 g/ha, 0 to 100 scale where 0 is no effect and 100 is complete control
Outline: (§8)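 Each compound, carried in a non-phytotoxic solvent blend including surfactant, was applied (postemergence: over the top of young plants at 1- to 4-leaf stage). Plants stayed in the greenhouse about 21 to 28 days before visual comparison with untreated controls.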

[7] = system: downy brome; test: Test E downy brome; format: in vivo, Bromus tectorum; details: Postemergence; for Plant response rating, Downy brome: 0 to 100 scale; for Downy brome plant response rating: Rate 250 g/ha, 0 to 100 scale where 0 is no effect and 100 is complete control
Method: as §5, §6, §7

[8] = system: Italian ryegrass; test: Test E Italian ryegrass; format: in vivo, Lolium multiflorum; details: Postemergence; for Plant response rating, I. Ryegrass: 0 to 100 scale; for I. Ryegrass plant response rating: Rate 250 g/ha, 0 to 100 scale where 0 is no effect and 100 is complete control
Outline: as §8

[9] = system: kochia; test: Test E kochia; format: in vivo, Kochia scoparia; details: Postemergence; for Plant response rating, Kochia: 0 to 100 scale; for Kochia plant response rating: Rate 250 g/ha, 0 to 100 scale where 0 is no effect and 100 is complete control
Outline: as §8

[10] = system: littleseed canarygrass; test: Test E littleseed canarygrass; format: in vivo, Phalaris minor; details: Postemergence; for Plant response rating, LS canarygrass: 0 to 100 scale; for LS canarygrass plant response rating: Rate 250 g/ha, 0 to 100 scale where 0 is no effect and 100 is complete control
Outline: as §8

[11] = system: redroot pigweed; test: Test E redroot pigweed; format: in vivo, Amaranthus retroflexus; details: Postemergence; for Plant response rating, Redroot pigweed: 0 to 100 scale; for Redroot pigweed plant response rating: Rate 250 g/ha, 0 to 100 scale where 0 is no effect and 100 is complete control
Method: as §5, §6, §7

[12] = system: Russian thistle; test: Test E Russian thistle; format: in vivo, Salsola kali; details: Postemergence; for Plant response rating, Russian thistle: 0 to 100 scale; for Russian thistle plant response rating: Rate 250 g/ha, 0 to 100 scale where 0 is no effect and 100 is complete control
Method: […] A mixture of sandy loam soil and greenhouse potting mix in a 60:40 ratio was used for the postemergence test.
as §6, §7

[13] = system: winter barley; test: Test E winter barley; format: in vivo, Hordeum vulgare; details: Postemergence; for Plant response rating, Barley (winter): 0 to 100 scale; for Barley (winter) plant response rating: Rate 250 g/ha, 0 to 100 scale where 0 is no effect and 100 is complete control
Method: as §5, §6, §7

[14] = system: deadnettle; test: Test E deadnettle; format: in vivo, Lamium amplexicaule; details: Preemergence; for Deadnettle plant response rating (0 to 100 scale): Rate 250 g/ha
[15] = system: field violet; test: Test E field violet; format: in vivo, Viola arvensis; details: Preemergence; for Field violet plant response rating (0 to 100 scale): Rate 250 g/ha
[16] = system: redroot pigweed; test: Test E redroot pigweed; format: in vivo, Amaranthus retroflexus; details: Preemergence; for Redroot pigweed plant response rating (0 to 100 scale): Rate 250 g/ha
[17] = system: surinam grass; test: Test D surinam grass; format: in vivo, Brachiaria decumbens; details: Postemergence, 0 to 100 scale
[18] = Rate 125 g/ha, 0 to 100 scale (0 no effect, 100 complete control)
[19] = Rate 125 g/ha, 0 is no effect, 100 is complete control
[20] = Rate 500 g/ha, 0 is no effect, 100 is complete control
[21] = Rate 500 g/ha, 0 to 100 scale where 0 is no effect and 100 is complete control

CC(C)N(C(=O)n1oc(=O)n(C)c1=O)c1ccc(F)cc1 [Compound 138]
Plant response rating, Barnyardgrass ([1]; Rate 140 g/ha): 40 | Plant response rating, Barnyardgrass ([1]; Rate 280 g/ha): 70 | Plant response rating, Barnyardgrass ([1]; Rate 560 g/ha): 85 | Plant response rating, Barnyardgrass ([1]; Rate 1120 g/ha): 85 | Plant response rating, Redroot pigweed ([2]; Rate 140 g/ha): 0 | Plant response rating, Redroot pigweed ([2]; Rate 280 g/ha): 10 | Plant response rating, Redroot pigweed ([2]; Rate 560 g/ha): 40 | Plant response rating, Redroot pigweed ([2]; Rate 1120 g/ha): 70 | Plant response rating, Velvetleaf ([3]; Rate 140 g/ha): 0 | Plant response rating, Velvetleaf ([3]; Rate 280 g/ha): 60 | Plant response rating, Velvetleaf ([3]; Rate 560 g/ha): 70 | Plant response rating, Velvetleaf ([3]; Rate 1120 g/ha): 80 | Plant response rating Wild poinsettia ([4]; Rate 140 g/ha): 0 | Plant response rating Wild poinsettia ([4]; Rate 280 g/ha): 0 | Plant response rating Wild poinsettia ([4]; Rate 560 g/ha): 0 | Plant response rating Wild poinsettia ([4]; Rate 1120 g/ha): 70 | Plant response rating, Chickweed ([5]; Rate 125 g/ha): 0 | Chickweed plant response rating [5]: 0 | Plant response rating, Deadnettle ([6]; Rate 125 g/ha): 0 | Deadnettle plant response rating [6]: 50 | Plant response rating, Downy brome ([7]; Rate 125 g/ha): 0 | Downy brome plant response rating [7]: 2 | Plant response rating, I. Ryegrass ([8]; Rate 125 g/ha): 0 | I. Ryegrass plant response rating [8]: 0 | Plant response rating, Kochia ([9]; Rate 125 g/ha): 15 | Kochia plant response rating [9]: 0 | Plant response rating, LS canarygrass ([10]; Rate 125 g/ha): 10 | LS canarygrass plant response rating [10]: 10 | Plant response rating, Redroot pigweed ([11]; Rate 125 g/ha): 20 | Redroot pigweed plant response rating [11]: 10 | Plant response rating, Russian thistle ([12]; Rate 125 g/ha): 0 | Russian thistle plant response rating [12]: 0 | Plant response rating, Barley (winter) ([13]; Rate 125 g/ha): 0 | Barley (winter) plant response rating [13]: 0 | Plant response rating, Deadnettle [14, 18]: 65 | Deadnettle plant response rating (0 to 100 scale) [14]: 70 | Plant response rating, Field violet [15, 18]: 50 | Field violet plant response rating (0 to 100 scale) [15]: 70 | Plant response rating, Redroot pigweed [16, 18]: 90 | Redroot pigweed plant response rating (0 to 100 scale) [16]: 90

CC(C)N(C(=O)n1oc(=O)n(C2CC2)c1=O)c1ccc(F)cc1 [Compound 242]
Plant response rating, Barnyardgrass ([1]; Rate 140 g/ha): 80 | Plant response rating, Barnyardgrass ([1]; Rate 280 g/ha): 85 | Plant response rating, Barnyardgrass ([1]; Rate 560 g/ha): 90 | Plant response rating, Barnyardgrass ([1]; Rate 1120 g/ha): 95 | Plant response rating, Redroot pigweed ([2]; Rate 140 g/ha): 0 | Plant response rating, Redroot pigweed ([2]; Rate 280 g/ha): 0 | Plant response rating, Redroot pigweed ([2]; Rate 560 g/ha): 10 | Plant response rating, Redroot pigweed ([2]; Rate 1120 g/ha): 50 | Plant response rating, Velvetleaf ([3]; Rate 140 g/ha): 0 | Plant response rating, Velvetleaf ([3]; Rate 280 g/ha): 0 | Plant response rating, Velvetleaf ([3]; Rate 560 g/ha): 40 | Plant response rating, Velvetleaf ([3]; Rate 1120 g/ha): 60 | Plant response rating Wild poinsettia ([4]; Rate 140 g/ha): 0 | Plant response rating Wild poinsettia ([4]; Rate 280 g/ha): 0 | Plant response rating Wild poinsettia ([4]; Rate 560 g/ha): 0 | Plant response rating Wild poinsettia ([4]; Rate 1120 g/ha): 85 | Plant response rating, Chickweed ([5]; Rate 62 g/ha): 0 | Plant response rating, Chickweed [5, 19]: 30 | Chickweed plant response rating [5]: 0 | Plant response rating, Chickweed [5, 20]: 50 | Plant response rating, Deadnettle ([6]; Rate 62 g/ha): 100 | Plant response rating, Deadnettle [6, 19]: 10 | Deadnettle plant response rating [6]: 10 | Plant response rating, Deadnettle [6, 20]: 50 | Plant response rating, Downy brome ([7]; Rate 62 g/ha): 30 | Plant response rating, Downy brome [7, 19]: 30 | Downy brome plant response rating [7]: 30 | Plant response rating, Downy brome [7, 20]: 40 | Plant response rating, I. Ryegrass ([8]; Rate 62 g/ha): 50 | Plant response rating, I. Ryegrass [8, 19]: 0 | I. Ryegrass plant response rating [8]: 70 | Plant response rating, I. Ryegrass [8, 20]: 60 | Plant response rating, Kochia ([9]; Rate 62 g/ha): 20 | Plant response rating, Kochia [9, 19]: 60 | Kochia plant response rating [9]: 0 | Plant response rating, Kochia [9, 20]: 20 | Plant response rating, LS canarygrass ([10]; Rate 62 g/ha): 65 | Plant response rating, LS canarygrass [10, 19]: 10 | LS canarygrass plant response rating [10]: 15 | Plant response rating, LS canarygrass [10, 20]: 50 | Plant response rating, Redroot pigweed ([11]; Rate 62 g/ha): 0 | Plant response rating, Redroot pigweed [11, 19]: 0 | Redroot pigweed plant response rating [11]: 0 | Plant response rating, Redroot pigweed [11, 20]: 40 | Plant response rating, Russian thistle ([12]; Rate 62 g/ha): 50 | Plant response rating, Russian thistle [12, 19]: 0 | Russian thistle plant response rating [12]: 0 | Plant response rating, Russian thistle [12, 20]: 0 | Plant response rating, Barley (winter) ([13]; Rate 62 g/ha): 20 | Plant response rating, Barley (winter) [13, 19]: 0 | Barley (winter) plant response rating [13]: 10 | Plant response rating, Barley (winter) [13, 20]: 20 | Plant response rating, Surinam grass ([17]; Rate 16 g/ha, 0 no injury, 100 complete control): 0 | Plant response rating, Surinam grass ([17]; Rate 32 g/ha, 0 no injury, 100 complete control): 30 | Surinam grass plant response rating ([17]; Rate 64 g/ha, 0 no injury, 100 complete control): 100 | Surinam grass plant response rating ([17]; Rate 125 g/ha, 0 no injury, 100 complete control): 100 | Plant response rating, Surinam grass ([17]; Rate 250 g/ha): 100 | Deadnettle plant response rating (0 to 100 scale) [14]: 70 | Plant response rating, Deadnettle [14, 21]: 100 | Plant response rating, Field violet [15, 18]: 50 | Field violet plant response rating (0 to 100 scale) [15]: 65 | Plant response rating, Field violet [15, 21]: 100 | Plant response rating, Redroot pigweed [16, 18]: 90 | Redroot pigweed plant response rating (0 to 100 scale) [16]: 100 | Plant response rating, Redroot pigweed [16, 21]: 100
